# Experimental data reported in ChEMBL document CHEMBL4049417, “Design and synthesis of novel 6-aryl substituted 4-anilinequinazoline derivatives as potential PI3Kδ inhibitors” (Bioorg Med Chem Lett, 2017).
# Columns and labels:
# Ramos = assay: Antiproliferative activity against human Ramos cells after 72 hrs by MTT assay; type: functional, cell-based
# [1] = target: PI3-kinase p110-delta/p85-alpha (Homo sapiens) (UniProt P27986+O00329); assay: Inhibition of PI3K p110delta/p85alpha (unknown origin) at 100 nM using lipid substrate after 40 mins by kinase-glo luminescence assay relative to control; type: protein-complex assay
# [2] = Antiproliferative activity against human RPMI8266 cells after 72 hrs by MTT assay; type: functional, cell-based; details: RPMI8266, 72 h
# [3] = target: PI3-kinase p110-delta/p85-alpha (Homo sapiens, UniProt O00329); assay: Inhibition of PI3K p110delta/p85alpha (unknown origin) using lipid substrate after 40 mins by kinase-glo luminescence assay; type: protein-complex assay
# Raji = assay: Antiproliferative activity against human Raji cells after 72 hrs by MTT assay; type: functional, cell-based
# PI3-kinase p110-delta/p85-alpha, sequence (P27986 whole entry): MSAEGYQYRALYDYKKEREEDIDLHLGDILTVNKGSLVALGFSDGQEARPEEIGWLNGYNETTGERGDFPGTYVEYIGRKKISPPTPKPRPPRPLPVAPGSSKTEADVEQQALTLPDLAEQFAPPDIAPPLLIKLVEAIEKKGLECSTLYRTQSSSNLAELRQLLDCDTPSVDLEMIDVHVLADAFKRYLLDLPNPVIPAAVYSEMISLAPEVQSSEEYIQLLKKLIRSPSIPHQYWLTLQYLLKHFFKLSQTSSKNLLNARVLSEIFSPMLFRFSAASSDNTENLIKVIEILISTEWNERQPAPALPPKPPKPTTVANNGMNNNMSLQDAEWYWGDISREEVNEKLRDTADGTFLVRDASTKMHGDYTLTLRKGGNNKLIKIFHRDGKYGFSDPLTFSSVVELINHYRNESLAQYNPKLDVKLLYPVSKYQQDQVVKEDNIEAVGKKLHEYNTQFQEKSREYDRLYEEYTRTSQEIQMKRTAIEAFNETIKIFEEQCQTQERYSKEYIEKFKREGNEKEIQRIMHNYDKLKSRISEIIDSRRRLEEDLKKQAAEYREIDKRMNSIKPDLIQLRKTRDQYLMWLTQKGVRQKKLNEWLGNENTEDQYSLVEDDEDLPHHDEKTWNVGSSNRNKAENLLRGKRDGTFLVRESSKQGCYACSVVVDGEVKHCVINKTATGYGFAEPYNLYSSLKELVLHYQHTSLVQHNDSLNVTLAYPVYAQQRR
# PI3-kinase p110-delta/p85-alpha, sequence (O00329 whole entry): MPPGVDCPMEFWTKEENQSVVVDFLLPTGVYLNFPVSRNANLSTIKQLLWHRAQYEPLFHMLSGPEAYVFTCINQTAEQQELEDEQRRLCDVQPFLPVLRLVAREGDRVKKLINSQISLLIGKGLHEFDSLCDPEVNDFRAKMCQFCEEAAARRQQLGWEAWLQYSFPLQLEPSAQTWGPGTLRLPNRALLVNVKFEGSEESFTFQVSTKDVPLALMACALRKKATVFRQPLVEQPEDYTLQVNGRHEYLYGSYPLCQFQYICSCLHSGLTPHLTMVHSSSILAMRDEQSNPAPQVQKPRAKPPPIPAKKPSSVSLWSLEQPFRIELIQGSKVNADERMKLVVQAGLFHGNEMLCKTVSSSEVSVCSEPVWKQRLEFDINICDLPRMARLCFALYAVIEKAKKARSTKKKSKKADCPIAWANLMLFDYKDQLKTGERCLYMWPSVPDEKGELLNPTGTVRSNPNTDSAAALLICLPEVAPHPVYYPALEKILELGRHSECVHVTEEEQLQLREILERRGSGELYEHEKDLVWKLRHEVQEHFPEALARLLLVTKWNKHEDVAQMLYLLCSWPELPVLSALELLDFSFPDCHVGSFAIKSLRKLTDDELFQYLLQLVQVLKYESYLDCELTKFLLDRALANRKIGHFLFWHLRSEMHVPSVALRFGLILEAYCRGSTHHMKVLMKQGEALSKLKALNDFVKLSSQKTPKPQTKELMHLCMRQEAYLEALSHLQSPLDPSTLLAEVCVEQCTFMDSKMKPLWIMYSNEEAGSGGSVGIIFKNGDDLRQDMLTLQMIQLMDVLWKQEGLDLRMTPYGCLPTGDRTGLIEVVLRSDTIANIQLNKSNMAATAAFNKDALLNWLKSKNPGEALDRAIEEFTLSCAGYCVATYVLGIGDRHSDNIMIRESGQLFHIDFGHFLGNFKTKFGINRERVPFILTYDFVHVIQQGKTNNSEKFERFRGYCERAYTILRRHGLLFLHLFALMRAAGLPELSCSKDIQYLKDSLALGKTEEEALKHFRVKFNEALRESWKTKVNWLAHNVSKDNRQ
IC50 (Ramos),inhibition [1],IC50 [3],IC50 (Raji),SMILES,IC50 [2]
–,33%,–,–,COc1ccc(-c2ccc3ncnc(Nc4cccc(C(=O)N5CCN(C)CC5)c4)c3c2)cc1C(N)=O,–
–,23%,–,–,COc1ccc(-c2ccc3nccc(Nc4cccc(C(=O)N5CCN(C)CC5)c4)c3c2)cn1,–
–,71%,–,–,COc1ccc(-c2ccc3ncnc(Nc4cccc(C(=O)N5CCN(C)CC5)c4)c3c2)cn1,–
–,0%,–,–,COc1ccc(-c2ccc3nccc(Nc4cccc(C(=O)N5CCN(C)CC5)c4)c3c2)cc1C(N)=O,–
–,87%,–,–,COc1ccc(-c2ccc3ncnc(Nc4cccc(C(=O)N5CCOCC5)c4)c3c2)cn1,–

# The next lines start with the molecule.
SMILES,IC50 (Ramos),inhibition [1],IC50 [3],IC50 (Raji),IC50 [2]
NC(=O)c1cc(-c2ccc3ncnc(Nc4cccc(C(=O)N5CCOCC5)c4)c3c2)cc(C(F)(F)F)c1,1060 nM,91%,9.7 nM,950 nM,1100 nM
COc1ccc(-c2ccc3ncnc(Nc4ccc(C(=O)N5CCOCC5)cc4)c3c2)cc1C(N)=O,–,0%,–,–,–
CC[C@H](Nc1ncnc2[nH]cnc12)c1nc2cccc(F)c2c(=O)n1-c1ccccc1 [IDELALISIB],> 10000 nM,96%,–,9950 nM,5490 nM
COc1ccc(-c2ccc3ncnc(Nc4ccc(C(=O)N5CCOCC5)cc4)c3c2)cn1,–,61%,–,–,–
COc1cc(C(N)=O)cc(-c2ccc3ncnc(Nc4cccc(C(=O)N5CCOCC5)c4)c3c2)c1,–,61%,–,–,–
COc1ncc(-c2ccc3ncnc(Nc4cccc(C(=O)N5CCOCC5)c4)c3c2)cc1C#N,> 10000 nM,93%,9.3 nM,> 10000 nM,6610 nM
COc1ccc(-c2ccc3ncnc(Nc4ccc(C(=O)N5CCN(C)CC5)cc4)c3c2)cc1C(N)=O,–,12%,–,–,–
COc1ccc(-c2ccc3ncnc(Nc4cccc(C(=O)N5CCOCC5)c4)c3c2)cc1C(N)=O,–,21%,–,–,–
COc1c(C(N)=O)cc(-c2ccc3ncnc(Nc4cccc(C(=O)N5CCOCC5)c4)c3c2)cc1[N+](=O)[O-],–,49%,–,–,–
